≈ marks a conversion by molar mass, not a printed value.

The test concerns S. pneumoniae ATCC 49619. As to the kind of experiment: Minimal inhibitory concentration (MIC) by broth microdilution (CLSI M7-A7). The test is classed as cell-based, Streptococcus pneumoniae. To be noted: Streptococcus pneumoniae, ATCC49619; cation-adjusted Mueller Hinton Broth supplemented with 3% (v/v) lysed horse blood; microdilution method. Summed up: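 Broth microdilution per CLSI M7-A7 in cation-adjusted Mueller-Hinton broth with 3% (v/v) lysed horse blood for S. pneumoniae. MIC in mg/l.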
In turn, `CCNC(=O)Nc1cc2c(-c3ccncc3C)ccc(CNC(=O)OC)c2cn1.Cl` [Example 185, [3-(3-ethyl-ureido)-5-(3-methyl-pyridin-4-yl)-isoquinolin-8-ylmethyl]-carbamic acid methyl ester hydrochloride] showed an MIC of 2 µg/mL. The same measure for `CCNC(=O)Nc1cc2c(-c3cc(F)ncc3C)ccc(CNC(=O)OC)c2cn1.Cl` [Example 186, [3-(3-ethyl-ureido)-5-(2-fluoro-5-methyl-pyridin-4-yl)-isoquinolin-8-ylmethyl]-carbamic acid methyl ester hydrochloride]: 2 µg/mL; for `CCNC(=O)Nc1cc2c(-c3ccnc(F)c3C)ccc(CNC(=O)OC)c2cn1.Cl` [Example 187, [3-(3-ethyl-ureido)-5-(2-fluoro-3-methyl-pyridin-4-yl)-isoquinolin-8-ylmethyl]-carbamic acid methyl ester hydrochloride]: 4 µg/mL; for `CCNC(=O)Nc1cc2c(-c3cc(C)ncc3F)ccc(CNC(=O)OC)c2cn1.Cl` [Example 188, [3-(3-ethyl-ureido)-5-(5-fluoro-2-methyl-pyridin-4-yl)-isoquinolin-8-ylmethyl]-carbamic acid methyl ester hydrochloride]: 2 µg/mL. In turn, `CCNC(=O)Nc1cc2c(-c3ccnc(C)c3C)ccc(CNC(=O)OC)c2cn1.Cl` [Example 189, [5-(2,3-dimethyl-pyridin-4-yl)-3-(3-ethyl-ureido)-isoquinolin-8-ylmethyl]-carbamic acid methyl ester hydrochloride] gave an MIC of 8 µg/mL.

On to `CCNC(=O)Nc1cc2c(-c3cc(C)ncc3C)ccc(CNC(=O)OC)c2cn1.Cl` [Example 190, [5-(2,5-dimethyl-pyridin-4-yl)-3-(3-ethyl-ureido)-isoquinolin-8-ylmethyl]-carbamic acid methyl ester hydrochloride], for which it took 4 µg/mL to inhibit growth (MIC). The same measure for `CCNC(=O)Nc1cc2c(-c3cc(F)ncc3F)ccc(CNC(=O)OC)c2cn1.Cl` [Example 191, [5-(2,5-difluoro-pyridin-4-yl)-3-(3-ethyl-ureido)-isoquinolin-8-ylmethyl]-carbamic acid methyl ester hydrochloride]: 2 µg/mL. The same measure for `CCNC(=O)Nc1cc2c(-c3ccnc(CCCO)c3)ccc(CNC(=O)OC)c2cn1` [Example 192, {3-(3-ethyl-ureido)-5-[2-(3-hydroxy-propyl)-pyridin-4-yl]-isoquinolin-8-ylmethyl}-carbamic acid methyl ester]: 2 µg/mL (≈ 4.57 µM). Under `CCNC(=O)Nc1cc2c(-c3ccnc(CC(=O)NC)c3)ccc(CNC(=O)OC)c2cn1` [Example 193, [3-(3-ethyl-ureido)-5-(2-(methylcarbamoyl-methyl)-pyridin-4-yl)-isoquinolin-8-ylmethyl]-carbamic acid methyl ester] stands 8 µg/mL (≈ 17.8 µM). As to `CCNC(=O)Nc1cc2c(-c3ccnc(CC(=O)N(C)C)c3)ccc(CNC(=O)OC)c2cn1` [Example 194, [5-[2-(dimethylcarbamoyl-methyl)-pyridin-4-yl]-3-(3-ethyl-ureido)-isoquinolin-8-ylmethyl]-carbamic acid methyl ester], the minimal inhibitory concentration (MIC) came to 4 µg/mL (≈ 8.61 µM). `CCNC(=O)Nc1cc2c(-c3ccnc(CCC(=O)NC)c3)ccc(CNC(=O)OC)c2cn1` [Example 195, {3-(3-ethyl-ureido)-5-[2-(2-methylcarbamoyl-ethyl)-pyridin-4-yl]-isoquinolin-8-ylmethyl}-carbamic acid methyl ester]: the minimal inhibitory concentration (MIC) was found to be 4 µg/mL (≈ 8.61 µM).

`CCNC(=O)Nc1cc2c(-c3ccnc(CCC(=O)N(C)C)c3)ccc(CNC(=O)OC)c2cn1` [Example 196, [5-[2-(2-dimethylcarbamoyl-ethyl)-pyridin-4-yl]-3-(3-ethyl-ureido)-isoquinolin-8-ylmethyl]-carbamic acid methyl ester] displayed an MIC of 4 µg/mL (≈ 8.36 µM). Under `CCNC(=O)Nc1cc2c(-c3ccnc(C#N)c3)ccc(CNC(=O)OC)c2cn1` [Example 197, [5-(2-cyano-pyridin-4-yl)-3-(3-ethyl-ureido)-isoquinolin-8-ylmethyl]-carbamic acid methyl ester] stands 2 µg/mL (≈ 4.95 µM).

These data come from patent publication US8889676B2, “3-ureidoisoquinolin-8-yl derivatives” (Actelion Pharmaceuticals Ltd., priority 2011, dated 2014).
